Where two headings read alike, the source gives them in different places.
Experiments:
Assay type in all cases: cell-based
[1] = target: T1, protein kinases (human kinome) (Homo sapiens, UniProt O14976)
T1 sequence (O14976 1-1311): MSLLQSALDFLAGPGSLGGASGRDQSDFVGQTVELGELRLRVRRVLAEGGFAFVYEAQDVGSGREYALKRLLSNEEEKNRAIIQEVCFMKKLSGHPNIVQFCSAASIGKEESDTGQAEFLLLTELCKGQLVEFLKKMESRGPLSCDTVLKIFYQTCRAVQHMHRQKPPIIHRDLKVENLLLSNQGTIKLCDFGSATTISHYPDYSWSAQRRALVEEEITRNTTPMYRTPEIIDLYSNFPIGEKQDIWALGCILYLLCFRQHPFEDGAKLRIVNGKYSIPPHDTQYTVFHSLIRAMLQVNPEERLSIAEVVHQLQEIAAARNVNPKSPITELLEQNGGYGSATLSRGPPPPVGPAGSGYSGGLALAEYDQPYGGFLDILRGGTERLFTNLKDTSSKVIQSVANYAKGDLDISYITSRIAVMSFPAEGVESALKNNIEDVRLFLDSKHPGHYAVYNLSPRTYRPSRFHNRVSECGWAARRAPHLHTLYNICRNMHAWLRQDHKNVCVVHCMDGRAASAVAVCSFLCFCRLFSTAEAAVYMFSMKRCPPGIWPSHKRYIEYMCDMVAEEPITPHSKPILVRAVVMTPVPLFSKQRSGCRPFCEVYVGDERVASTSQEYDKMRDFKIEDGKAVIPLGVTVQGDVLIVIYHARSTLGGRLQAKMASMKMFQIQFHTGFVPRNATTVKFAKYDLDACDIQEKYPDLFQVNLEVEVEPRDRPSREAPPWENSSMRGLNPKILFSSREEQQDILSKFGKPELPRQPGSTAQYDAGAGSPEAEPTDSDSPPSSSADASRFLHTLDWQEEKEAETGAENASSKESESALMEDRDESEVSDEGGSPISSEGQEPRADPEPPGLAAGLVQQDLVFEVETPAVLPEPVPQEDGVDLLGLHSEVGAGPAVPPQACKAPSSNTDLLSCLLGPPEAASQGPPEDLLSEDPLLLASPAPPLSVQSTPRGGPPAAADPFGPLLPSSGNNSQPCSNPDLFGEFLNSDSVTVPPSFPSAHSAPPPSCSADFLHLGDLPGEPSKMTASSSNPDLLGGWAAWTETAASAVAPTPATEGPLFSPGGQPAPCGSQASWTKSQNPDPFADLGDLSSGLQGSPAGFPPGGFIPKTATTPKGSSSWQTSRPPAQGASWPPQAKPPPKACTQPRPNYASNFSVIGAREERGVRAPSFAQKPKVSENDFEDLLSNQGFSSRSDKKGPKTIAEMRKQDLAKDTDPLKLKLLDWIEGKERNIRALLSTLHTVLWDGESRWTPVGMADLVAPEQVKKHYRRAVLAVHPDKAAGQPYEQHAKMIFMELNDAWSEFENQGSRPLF

[2] = target: protein kinases (human kinome) (Homo sapiens, UniProt P16591); conditions: for logFC of FER (P16591-1): down; for logFC of FER: FER P16591-1
[3] = target: protein kinases (human kinome) (Homo sapiens, UniProt Q00534); conditions: for logFC CDK6: CDK6 (Q00534), direction down; for logFC of CDK6 (Q00534): down
Chain of protein kinases (human kinome) (Homo sapiens, UniProt Q00534) (Q00534 whole entry): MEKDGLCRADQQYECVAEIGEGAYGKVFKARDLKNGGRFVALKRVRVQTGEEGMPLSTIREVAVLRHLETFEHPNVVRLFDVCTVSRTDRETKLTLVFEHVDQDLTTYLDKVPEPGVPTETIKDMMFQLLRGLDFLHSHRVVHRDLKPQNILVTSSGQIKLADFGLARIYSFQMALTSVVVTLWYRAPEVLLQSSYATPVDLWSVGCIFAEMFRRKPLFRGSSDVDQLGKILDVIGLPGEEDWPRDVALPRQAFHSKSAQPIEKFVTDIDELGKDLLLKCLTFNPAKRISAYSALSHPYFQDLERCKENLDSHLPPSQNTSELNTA

Chain of protein kinases (human kinome) (Homo sapiens, UniProt P16591) (P16591 whole entry): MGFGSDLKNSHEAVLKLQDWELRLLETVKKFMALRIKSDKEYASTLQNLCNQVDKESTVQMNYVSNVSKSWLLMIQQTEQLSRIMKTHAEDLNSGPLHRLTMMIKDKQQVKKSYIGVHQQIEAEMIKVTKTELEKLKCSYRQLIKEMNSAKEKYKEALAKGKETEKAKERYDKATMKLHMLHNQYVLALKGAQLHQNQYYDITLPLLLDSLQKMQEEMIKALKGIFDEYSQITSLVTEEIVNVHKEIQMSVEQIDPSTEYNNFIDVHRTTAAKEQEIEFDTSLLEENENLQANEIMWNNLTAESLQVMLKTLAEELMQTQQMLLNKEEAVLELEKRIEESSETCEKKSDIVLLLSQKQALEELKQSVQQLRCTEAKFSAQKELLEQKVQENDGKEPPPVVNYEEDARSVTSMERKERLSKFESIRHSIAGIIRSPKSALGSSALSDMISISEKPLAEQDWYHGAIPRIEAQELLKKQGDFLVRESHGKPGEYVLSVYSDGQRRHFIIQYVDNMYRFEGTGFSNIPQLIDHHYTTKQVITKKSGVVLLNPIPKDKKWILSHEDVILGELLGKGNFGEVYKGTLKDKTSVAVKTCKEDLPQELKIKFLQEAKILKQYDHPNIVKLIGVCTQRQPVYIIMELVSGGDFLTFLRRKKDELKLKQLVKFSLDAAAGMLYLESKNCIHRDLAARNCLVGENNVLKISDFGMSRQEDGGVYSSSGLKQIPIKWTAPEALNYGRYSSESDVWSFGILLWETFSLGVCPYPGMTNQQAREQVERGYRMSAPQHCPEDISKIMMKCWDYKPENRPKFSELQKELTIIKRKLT

For `Cc1ccc(NC(=O)c2cccc(C(F)(F)F)c2)cc1N1Cc2cnc(Nc3ccc(N4CCN(CCCOc5cccc6c5C(=O)N(C5CCC(=O)NC5=O)C6=O)CC4)nc3)nc2N(C)C1=O` (centres unmarked) [DB0662], the “logFC GAK” value ([1]; GAK (O14976), direction down, experiment wp168) was −0.4373, the “logFC GAK” value ([1]; GAK (O14976), experiment wp168, down) was −0.4373 and the “logFC of FER (P16591-1)” value ([2]; Experiment wp168) was −1.481. For the same compound, the “logFC of FER” value ([2]; experiment wp168) was −1.481.
For `Cn1c(=O)c(-c2c(Cl)cccc2Cl)cc2cnc(Nc3ccc(OCCNC(=O)CCCCCCNC(=O)COc4cccc5c4C(=O)N(C4CCC(=O)NC4=O)C5=O)cc3)nc21` (centres unmarked) [SB1.G.192.1], the “logFC of GAK (O14976)” value ([1]; Experiment wp071, down) was −1.765, the “logFC of GAK (O14976)” value ([1]; Experiment wp081, down) was −1.409 and the “logFC of GAK (O14976)” value ([1]; Experiment wp131, down) was −1.475. The “logFC GAK” value ([1]; GAK (O14976), direction down, experiment wp071) was −1.765, the “logFC GAK” value ([1]; GAK (O14976), direction down, experiment wp081) was −1.409 and the “logFC GAK” value ([1]; GAK (O14976), direction down, experiment wp131) was −1.475.
In the case of `Cc1ccc(NC(=O)c2cccc(C(F)(F)F)c2)cc1N1Cc2cnc(Nc3ccc(N4CCN(CCCCCCOc5cccc6c5C(=O)N(C5CCC(=O)NC5=O)C6=O)CC4)nc3)nc2N(C)C1=O` (centres unmarked) [DB0663], the “logFC of GAK (O14976)” value ([1]; Experiment wp045, down) is reported as −0.691, the “logFC GAK” value ([1]; GAK (O14976), direction down, experiment wp045) is reported as −0.691 and the “logFC of FER (P16591-1)” value ([2]; Experiment wp045) is reported as −0.9581. For the same compound, the “logFC of FER” value ([2]; experiment wp045) was −0.9581.
`Cc1ccc(C(=O)Nc2ccc(CN3CCN(CCCOCCOCCOCCNC(=O)COc4cccc5c4C(=O)N(C4CCC(=O)NC4=O)C5=O)CC3)c(C(F)(F)F)c2)cc1C#Cc1cnc2cccnn12` (centres unmarked) [SB1.G.187] was tested, and the “logFC of GAK (O14976)” value ([1]; Experiment wp056, down) was −1.543, the “logFC of GAK (O14976)” value ([1]; Experiment wp103, down) was −1.478 and the “logFC of GAK (O14976)” value ([1]; Experiment wp105, down) was −1.088. For the same compound, the “logFC of GAK (O14976)” value ([1]; Experiment wp107, down) was −1.768, the “logFC of GAK (O14976)” value ([1]; Experiment wp114, down) was −0.3578 and the “logFC GAK” value ([1]; GAK (O14976), direction down, experiment wp056) was −1.543. The “logFC GAK” value ([1]; GAK (O14976), direction down, experiment wp103) was −1.478, the “logFC GAK” value ([1]; GAK (O14976), direction down, experiment wp105) was −1.088 and the “logFC GAK” value ([1]; GAK (O14976), direction down, experiment wp107) was −1.768. For the same compound, the “logFC GAK” value ([1]; GAK (O14976), direction down, experiment wp114) was −0.3578, the “logFC GAK” value ([1]; GAK (O14976), experiment wp172, down) was −1.007 and the “logFC GAK” value ([1]; GAK, accession O14976, experiment wp172, direction of change down) was −1.007. For the same compound, the “logFC CDK6” value ([3]; experiment wp103) was −0.346, the “logFC of CDK6 (Q00534)” value ([3]; Experiment wp103) was −0.346 and the “logFC of FER (P16591-1)” value ([2]; Experiment wp056) was −1.267. The “logFC of FER (P16591-1)” value ([2]; Experiment wp103) was −1.672, the “logFC of FER (P16591-1)” value ([2]; Experiment wp105) was −1.432 and the “logFC of FER (P16591-1)” value ([2]; Experiment wp107) was −1.76. For the same compound, the “logFC of FER” value ([2]; experiment wp056) was −1.267, the “logFC of FER” value ([2]; experiment wp103) was −1.672 and the “logFC of FER” value ([2]; experiment wp105) was −1.432. For the same compound, the “logFC of FER” value ([2]; experiment wp107) was −1.76.
With `CN(C)C(=O)c1cc2cnc(Nc3ccc(N4CCN(CCCCNC(=O)COc5cccc6c5C(=O)N(C5CCC(=O)NC5=O)C6=O)CC4)cn3)nc2n1C1CCCC1` (centres unmarked) [BSJ.04.132] the “logFC CDK6” value ([3]; experiment wp084) was −0.7531 and the “logFC of CDK6 (Q00534)” value ([3]; Experiment wp084) was −0.7531.
